Measurements reported in patent US12606542B2, “[(1,5-diheteroaryl-1H-1,2,4-triazol-3-yl)oxy] acetic acid derivatives as safeners for the protection of useful plants and crop plants” (BAYER AKTIENGESELLSCHAFT, priority 2020, dated 2026).

System: summer wheat (TRZAS; cv. Triso)
Assay: Reduction of damage by mesosulfuron-methyl on summer wheat (greenhouse safener test, post-emergence)
Format: in vivo
Design: key: 0: no reduction in damage (appearance corresponding to the herbicide control); 1: slight reduction in damage; 2: distinct reduction in damage; 3: significant reduction in damage; 4: complete reduction in damage (appearance corresponding to the untreated control)
Conditions: safener 100 g/ha as WP spray at early leaf stage (BBCH10-BBCH12), then mesosulfuron-methyl 40-60 g/ha; visual assessment 9-13 days after application; crop plant TRZAS
Experimental: 2.1 Relative Action of Selected Compounds of the Invention Using the Example of Reduction of Damage by Mesosulfuron-Methyl on Summer Wheat (TRZAS) The seeds of the crop plants to be treated are laid out in sandy loam in plastic pots (diameter ˜4 cm), covered with soil and grown in a greenhouse under good conditions for germination and growth. The trial plants were treated at the early leaf stage (BBCH10-BBCH12). In the course of this, the inventive compounds of the general formula (I) formulated in the form of wettable powders (WP) were sprayed onto the above-ground parts of the plants as an aqueous suspension with a water application rate corresponding to 800 l/ha with addition of wetting agent (e.g. 0.2% Genapol-LRO or 0.2% Mero) in the specified dose. This was followed by the application of the herbicide. For this purpose, mesosulfuron-methyl, formulated in the form of water-dispersible granules (WG), was sprayed onto the above-ground parts of the plants in the form of an aqueous dispersion with a water application rate corresponding to 800 l/ha with addition of wetting agent (e.g. 0.2% Genapol-LRO or 1 l/ha Biopower) in a dose of 40-60 g/ha. […] 9-13 days after application, the efficacy of the test compounds was assessed visually. […]

COC(=O)COc1nc(-c2ccc(F)cn2)n(-c2ccc(Cl)cn2)n1 [Example I.31-10, Methyl {[1-(5-chloropyridin-2-yl)-5-(5-fluoropyridin-2-yl)-1H-1,2,4-triazol-3-yl]oxy}acetate]
Efficacy of the safener (efficacy code): 2
